# Measured values taken from US20190002429A1, “Derivatives of Xanthone Compounds” (Agency for Science, Technology and Research, priority 2011, published 2019).
# Where “and” joins values, the source holds several entries; their conditions need not be identical. Equal entries are not always repeated. Entries after “also recorded” stand apart in the source; their conditions may differ.
# Key:
# [1] = system: MRSA; experiment: MIC99 against MRSA (Table 2-1); type: cell-based, Staphylococcus aureus
# [2] = system: S. aureus; experiment: MIC99 against S. aureus (Table 2-1); type: cell-based, Staphylococcus aureus
# [3] = system: MRSA DM21455; experiment: MIC against MRSA DM21455; type: cell-based, Staphylococcus aureus
# [4] = system: Clinical Staphylococcus aureus DM4583R; experiment: MIC against clinical S. aureus DM4583R; type: cell-based; conditions: Source: Eye
# [5] = system: MRSA DB57964/04; experiment: MIC against MRSA DB57964/04; type: cell-based, Staphylococcus aureus
# [6] = system: Clinical Staphylococcus aureus DM4299; experiment: MIC against clinical S. aureus DM4299; type: cell-based
# [7] = system: MRSA DR68004; experiment: MIC against MRSA DR68004; type: cell-based, Staphylococcus aureus; conditions: MRSA DR68004, Source: Blood
# [8] = system: Straphylococcus aureus ATCC 6538P; experiment: MIC against S. aureus ATCC 6538P; type: cell-based, Staphylococcus aureus
# [9] = system: Streptococcus faecium ATCC 10541; experiment: MIC against Streptococcus faecium ATCC 10541; type: cell-based
# [10] = system: Bacillus cereus ATCC11778; experiment: MIC against Bacillus cereus ATCC11778; type: cell-based
# [11] = system: Pseudomonas aeruginosa ATCC27853; experiment: MIC against Pseudomonas aeruginosa ATCC27853; type: cell-based
# [12] = system: Enterococcus faecalis ATCC 51299 VRE; experiment: MIC against Enterococcus faecalis ATCC 51299 VRE; type: cell-based; conditions: E. faecalis ATCC 51299 VRE; no unit in table (Example 10 MICs in μg/ml)
# [13] = system: Staphylococcus aureus 10: DB6506 (MRSA04/10) (VISA); experiment: MIC against S. aureus DB6506 (VISA); type: cell-based; conditions: no unit in table (Example 10 MICs in μg/ml)
# [14] = system: Clinical Staphylococcus aureus DM4001; experiment: Cytoplasmic membrane depolarization (DiSC3 dye); type: cell-based; conditions: DiSC3 fluorescence; AM-016 at 12.5 ug/mL
# Protocol: Membrane potential-sensitive dye 3,3′-dipropylthiadicarbocyanine iodide (DiSC3) was used to determine the cytoplasmic membrane depolarization activity of AM-016. An overnight culture of clinical Staphylococcus aureus DM4001(source: Eye) was allowed to grow in Muller-Hinton broth (MHB) to OD620=0.3-0.4. Then, the bacteria was collected by centrifugation at 2800 r.p.m at 37° C. for 30 minutes and washed with 5 mM HEPES buffer at pH7. […] The cell suspension was then incubated with 0.1M KCl and 0.4 μM DiSC3 at 37° C. for 30 minutes. Dye uptake was monitored by fluorospectrometry (Photon Technology International (PTI) Photomultiplier Detection Systems, model 814) in a stirred cuvette until the fluorescence signal was stable. The desired concentration of AM-016 was added and the fluorescence was monitored at an excitation wavelength of 622 nm and at an emission wavelength of 670 nm. A blank with dye in the absence of bacteria with same concentration of AM-016 was used as a control.
# [15] = system: red blood cell
# [16] = system: S. aureus and Enterococcus faecalis; conditions: 4 strains, sub-inhibitory concentrations, FIG. 8
substance,measurement,setting,value
"3,6-bis-[4-(diethylamino)butoxy)]-1-hydroxy-7-methoxy-2,8-bis(3-methylbut-2-enyl)-9H-xanthen-9-one [AM-016]",MIC99 MRSA,[1],0.39 µg/mL
same,MIC99 S. aureus,[2],0.39 µg/mL
same,Minimum inhibition concentration (MIC),"[3]; MRSA DM21455, Source: Eye",0.39 μg/ml and 0.59 μM
same,MIC,"[3]; MRSA-21455 (Eye), Example 10, Mueller Hinton broth dilution",1.56 µg/mL
same,Minimum inhibition concentration (MIC),[4],0.78 μg/ml and 1.17 μM
same,Minimum inhibition concentration (MIC),[5],0.78 μg/ml and 1.17 μM
same,Minimum inhibition concentration (MIC),[6],1.56 μg/ml and 2.35 μM
same,Minimum inhibition concentration (MIC),[7],1.56 μg/ml and 2.35 μM
same,Minimum inhibition concentration (MIC),[8],0.78 μg/ml and 1.17 μM
same,Minimum inhibition concentration (MIC),[9],0.195 μg/ml and 0.295 μM
same,Minimum inhibition concentration (MIC),[10],3.125 μg/ml and 4.70 μM
same,Minimum inhibition concentration (MIC),[11],50 μg/ml and 75.20 μM
same,Minimum inhibitory concentration,[12],1.56
same,Minimum inhibitory concentration,[13],0.78
same,Cytoplasmic membrane depolarization,[14],causes membrane depolarization; also recorded: depolarizes
same,HC50,[15],19.6 µg/mL
same,"Hemolytic concentration, HC50",[15],19.6 µg/mL
same,Resistance (>4-fold increase in original MIC) in multipassage study,[16],no evidence of resistance or cross-resistance
